Some test systems named below: DLD-1; DMS-114; KM-20L2; LXFL 529; M19-MEL; RXF 631; XF498; DMS-273; SNB-78.
Holding throughout (assay): NCI-60 cell line screen, 48 h

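Results reflect a 48-hour exposure of cells in 96-well plates to compound at five concentrations. GI50 = concentration required for 50% inhibition of growth.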 Calls of active or inactive are those of the source. No stated cut-off is given here; in the data, active = GI50 up to about 1.1 µM and inactive = higher. A value given as a limit tells only on which side of the number the result lay.

Regarding `[C-]#[N+][C@@H]1C2[C@H](CC[C@@]1(C)O)C(=C)CC[C@@H]2[C@@]1(C)CC[C@H](Cl)C(C)(C)O1` (some centres not stated), the GI50 in the assay on DLD-1 is 2.88 µM (inactive); in the assay on DMS-114, 1.5 µM (inactive); in the assay with KM-20L2, 6.68 µM (inactive); in the assay on LXFL 529, 3.57 µM (inactive); with M19-MEL, 4.12 µM (inactive); with RXF 631 it was 6.62 µM (inactive). Besides, the GI50 in the assay with XF498 was 4.71 µM (inactive).
For `CCC12C=C(C(=O)OC)N3c4ccccc4C4CCN(CCC1)C2C43` (configuration not stated), the GI50 is 66.7 µM (inactive) in the assay with DLD-1; 63 µM (inactive) with DMS-114; 59.6 µM (inactive) in the assay on DMS-273; 19.1 µM (inactive) in the assay with KM-20L2; 87.1 µM (inactive) with LXFL 529; 75.9 µM (inactive) with M19-MEL. In the assay on SNB-78, the GI50 is > 100 µM (inactive).
Regarding `COC(=O)C1(C)NCCc2c1[nH]c1ccccc21` (configuration not stated), the GI50 in the assay on DLD-1, with DMS-114, with KM-20L2, in the assay on LXFL 529 and in the assay with M19-MEL was > 100 µM (inactive) each time.
Take `CC1=N/C(=C\c2cccc3ccccc23)C(=O)O1`: the GI50 with DLD-1, with DMS-114, in the assay on KM-20L2, in the assay with LXFL 529, with M19-MEL and with RXF 631 was > 100 µM (inactive) in each case. The GI50 in the assay with SNB-78 was > 100 µM (inactive).
As to `C=C1CCC(OC(C)=O)C2(C)C(OC(C)=O)CC3OC3(C)C2C(OC(C)=O)C2C(C)C(=O)OC2C1Cl` (configuration not stated), the GI50 in the assay on DLD-1, in the assay on DMS-114, in the assay on DMS-273, in the assay on KM-20L2, in the assay with LXFL 529 and in the assay on M19-MEL was > 100 µM (inactive) in each case. Moreover, the GI50 in the assay on RXF 631, in the assay on SNB-78 and in the assay with XF498 was > 100 µM (inactive) throughout.
With `COc1ccc2nc3cc(Cl)ccc3c(NC(C)CCCN(CCCl)CCCl)c2c1` (configuration not stated), the GI50 in the assay on DLD-1 is 0.524 µM (active); in the assay with DMS-114, 0.733 µM (active); with DMS-273 it was 0.109 µM (active); in the assay with KM-20L2, 0.356 µM (active); with LXFL 529, 0.439 µM (active); in the assay with M19-MEL it was 0.598 µM (active). Also, the GI50 with SNB-78 was 0.622 µM (active); in the assay on XF498, 0.333 µM (active).
Regarding `COc1ccc(C(=O)C(C(=O)CC(=O)Nc2cccc(C(F)(F)F)c2)c2ccc(OC)cc2)cc1` (configuration not stated), the GI50 in the assay with DLD-1, in the assay with DMS-114, with DMS-273, in the assay with KM-20L2, with LXFL 529 and in the assay on M19-MEL was > 100 µM (inactive) throughout. Besides, the GI50 in the assay with RXF 631, in the assay on SNB-78 and in the assay on XF498 was > 100 µM (inactive) throughout.
As to `Cc1nc2ccccn2c1/N=N/c1ccc(C(=O)NN)cc1`, the GI50 with DLD-1 is 52.4 µM (inactive); with DMS-114, 17.4 µM (inactive); in the assay with KM-20L2, 92.9 µM (inactive); with LXFL 529, 38.5 µM (inactive); in the assay on M19-MEL, > 100 µM (inactive); in the assay on RXF 631, 31.7 µM (inactive). Besides, the results for the GI50 with SNB-78 and with XF498 were > 100 µM (inactive) and 75 µM (inactive), respectively.
For the compound `CC1CC(=O)Nc2ccccc2N1C(=O)CN1CCC(CCCCN(C)C)CC1` (configuration not stated), the GI50 in the assay on DLD-1, in the assay with DMS-114, in the assay on DMS-273, with KM-20L2, in the assay on LXFL 529 and in the assay on M19-MEL was > 100 µM (inactive) in each case. For the same compound, the GI50 with RXF 631 and in the assay with SNB-78 was > 100 µM (inactive) each time.
Take `C[n+]1c2ccccc2c(CNC(CS)C(=O)O)c2ccccc21` (configuration not stated): the GI50 in the assay with DLD-1 is 24.6 µM (inactive); in the assay with DMS-273, 18.5 µM (inactive); in the assay with KM-20L2, 20.4 µM (inactive); with LXFL 529, 32.4 µM (inactive); with M19-MEL it was 27.7 µM (inactive); in the assay with RXF 631 it was 24.9 µM (inactive). Besides, the results for the GI50 with SNB-78 and with XF498 were 34.3 µM (inactive) and 24.3 µM (inactive), respectively.
With `C[S+]=c1sc2ccccc2s1`, the GI50 with DLD-1, in the assay on DMS-114, in the assay on DMS-273, with KM-20L2, with LXFL 529 and in the assay with M19-MEL was > 100 µM (inactive) in each case. Besides, in the assay with RXF 631, the GI50 was > 100 µM (inactive).
Regarding `Nc1cccc(C(=O)/C=C/c2ccccc2O)c1`, the GI50 in the assay on DLD-1 is > 100 µM (inactive); in the assay on DMS-114 it was 46.7 µM (inactive); with DMS-273, > 100 µM (inactive); with KM-20L2, > 100 µM (inactive); with LXFL 529, 71.4 µM (inactive); in the assay with M19-MEL, > 100 µM (inactive). For the same compound, the GI50 with SNB-78 and with XF498 was > 100 µM (inactive) throughout.
Take `Cc1ccc(S(=O)(=O)N/N=C2\C(=O)C3CC2C(Cl)C3Cl)cc1` (configuration not stated): the GI50 in the assay with DLD-1, in the assay on DMS-114, with DMS-273, in the assay on KM-20L2, in the assay on LXFL 529 and in the assay on RXF 631 was > 100 µM (inactive) throughout.
`CN(C)C(=N)c1ccccc1`: the GI50 with DMS-114, in the assay with DMS-273, in the assay on KM-20L2, with LXFL 529, with M19-MEL and in the assay with SNB-78 was > 100 µM (inactive) throughout. The GI50 with XF498 was > 100 µM (inactive).
As to `NC(=O)C(=O)Cc1nc2ccccc2s1`, the GI50 in the assay with DMS-114, with KM-20L2, in the assay on LXFL 529, with M19-MEL, in the assay with SNB-78 and in the assay on XF498 was > 100 µM (inactive) each time.
Consider `C[C@]12CCC(=O)C(OC(=O)c3ccc([N+](=O)[O-])cc3)=C1CCC2=O`, for which the GI50 with DLD-1, in the assay on DMS-114, with DMS-273, with KM-20L2, in the assay with LXFL 529 and in the assay on M19-MEL was > 100 µM (inactive) each time. For the same compound, the GI50 in the assay with SNB-78 is > 100 µM (inactive).
As for `N#CC(C#N)=c1ccc(=C2N3CCCC3CN2C23CC4CC(CC(C4)C2)C3)cc1` (configuration not stated), the GI50 with DLD-1, in the assay on DMS-114, in the assay on DMS-273, in the assay with KM-20L2, in the assay on LXFL 529 and in the assay with M19-MEL was > 100 µM (inactive) each time. In addition, the GI50 in the assay with SNB-78 is > 100 µM (inactive).
For the compound `COC(=O)CCC(NC(=S)N/N=C(\C)c1cnccn1)C(=O)OC` (configuration not stated), the GI50 with DLD-1 is 48 µM (inactive); with DMS-114, 22.1 µM (inactive); with KM-20L2, 38.6 µM (inactive); in the assay on LXFL 529, 57.7 µM (inactive); in the assay on M19-MEL, 39.5 µM (inactive); in the assay with RXF 631 it was 73.5 µM (inactive). In addition, the GI50 in the assay with SNB-78 and with XF498 was > 100 µM (inactive) throughout.
With `CCc1ccccc1N1C(=O)C(=O)C(c2nc3ccccc3s2)C(=O)C1=O`, the GI50 with DLD-1 was 43.2 µM (inactive); in the assay on DMS-114 it was 79.3 µM (inactive); with KM-20L2, > 100 µM (inactive); in the assay with LXFL 529 it was 75.7 µM (inactive); with M19-MEL, > 100 µM (inactive); in the assay on RXF 631, 44.3 µM (inactive). For the same compound, the GI50 in the assay on SNB-78 and with XF498 was > 100 µM (inactive) in each case.
Consider `O=C(CC1Sc2ccccc2NC1=O)Nc1ccc([N+](=O)[O-])cc1[N+](=O)[O-]` (configuration not stated), for which the GI50 is 15.3 µM (inactive) in the assay on DLD-1; 14.2 µM (inactive) in the assay on DMS-114; 26.7 µM (inactive) in the assay with KM-20L2; 15.3 µM (inactive) with LXFL 529; 16.1 µM (inactive) in the assay with M19-MEL; 17.1 µM (inactive) in the assay with RXF 631. Moreover, the GI50 in the assay with SNB-78 is 21.2 µM (inactive).
